ChEMBL document CHEMBL3763116, “Synthesis and evaluation of colletoic acid core derivatives” (Eur J Med Chem, 2016)

What was measured:
BJ = test: Cytotoxicity against human BJ cells after 72 hrs by Cell TitreGlo assay; type: cell-based
[1] = biological target: 11-beta-hydroxysteroid dehydrogenase 1 (Homo sapiens, UniProt P28845); test: Inhibition of 11beta-HSD1 (unknown origin) using cortisol as substrate assessed as NADPH formation by fluorescent plate reader analysis
[2] = biological target: T1, 11-beta-hydroxysteroid dehydrogenase type 2 (Homo sapiens, UniProt P80365); test: Inhibition of full length human 11beta-HSD2 expressed in HEK293 cells using […] as substrate incubated for 2 hrs by HTRF assay in presence of NAD+; type: cell-based
T1 sequence (P80365 whole entry): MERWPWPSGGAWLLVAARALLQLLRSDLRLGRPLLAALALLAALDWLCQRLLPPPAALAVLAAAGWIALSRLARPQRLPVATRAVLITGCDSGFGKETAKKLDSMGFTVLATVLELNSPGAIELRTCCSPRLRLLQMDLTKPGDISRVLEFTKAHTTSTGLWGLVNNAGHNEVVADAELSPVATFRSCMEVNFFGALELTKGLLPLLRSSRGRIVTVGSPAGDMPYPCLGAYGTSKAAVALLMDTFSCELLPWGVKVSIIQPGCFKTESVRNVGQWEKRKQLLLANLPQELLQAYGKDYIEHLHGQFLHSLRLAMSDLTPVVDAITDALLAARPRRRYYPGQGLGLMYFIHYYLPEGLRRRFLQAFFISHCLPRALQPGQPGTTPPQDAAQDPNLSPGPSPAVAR

Sequence of 11-beta-hydroxysteroid dehydrogenase 1 (P28845 whole entry): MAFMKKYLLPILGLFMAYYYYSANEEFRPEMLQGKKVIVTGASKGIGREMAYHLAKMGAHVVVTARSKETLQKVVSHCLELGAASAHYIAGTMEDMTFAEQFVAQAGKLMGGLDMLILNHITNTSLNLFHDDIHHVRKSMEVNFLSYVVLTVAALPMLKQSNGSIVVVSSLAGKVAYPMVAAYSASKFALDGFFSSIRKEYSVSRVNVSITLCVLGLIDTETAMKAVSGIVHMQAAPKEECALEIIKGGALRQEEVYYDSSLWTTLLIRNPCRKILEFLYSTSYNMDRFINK

Compound: CC(C)=CCC/C(C)=C/CNC(=O)[C@H]1CC=C(C(C)C)[C@]12C=CC(=O)CC2
- EC50 (BJ): > 90 µM
- IC50 [1]: 18 µM
- IC50 [2]: > 1000 µM

Compound: C=C1CC[C@H](C(=O)OCC)[C@@]12C=CC(=O)CC2
- EC50 (BJ): > 90 µM
- IC50 [1]: > 1000 µM

Compound: CC1=CC[C@H](CO)[C@@]12C=CC(=O)CC2
- EC50 (BJ): > 90 µM
- IC50 [1]: > 1000 µM

Compound: CCOC(=O)[C@H]1CC[C@@H](C(C)C)[C@]12C=CC(=O)CC2
- EC50 (BJ): > 90 µM
- IC50 [1]: > 1000 µM

Compound: CC(C)C1=CC[C@H]2C(=O)O[C@@H]3CC(=O)CC[C@@]132
- EC50 (BJ): > 90 µM
- IC50 [1]: > 1000 µM

Compound: CC(C)[C@@H]1CC[C@@H]2CO[C@@H]3[C@H](O)[C@](C)(O)CC[C@]231
- EC50 (BJ): > 90 µM
- IC50 [1]: > 1000 µM

Compound: CC(C)[C@@H]1CC[C@H](CO)[C@]12CC[C@@](C)(O)C[C@H]2O
- EC50 (BJ): > 90 µM
- IC50 [1]: > 1000 µM

Compound: CCn1c2ccccc2c2nnc(S(=O)(=O)C[C@H]3CC=C(C(C)C)[C@]34C=CC(=O)CC4)nc21
- EC50 (BJ): > 90 µM
- IC50 [1]: 74 µM
- IC50 [2]: > 1000 µM

Compound: CC(C)C1=CC[C@H](CS(=O)(=O)c2nc3ccccc3o2)[C@@]12C=CC(=O)CC2
- EC50 (BJ): > 90 µM
- IC50 [1]: > 1000 µM
- IC50 [2]: > 1000 µM

Compound: C=C1CC[C@]2(C[C@@H]1OC(C)=O)[C@@H](C(=O)OCC)CC[C@H]2C(C)C
- EC50 (BJ): > 90 µM
- IC50 [1]: > 1000 µM

Compound: O=C1C=C[C@@]2(CC1)c1ccccc1C[C@@H]2C(=O)O
- EC50 (BJ): > 90 µM
- IC50 [1]: > 1000 µM

Compound: CC(C)C1=CC[C@H](CS(=O)(=O)c2nnnn2-c2ccccc2)[C@@]12C=CC(=O)CC2
- EC50 (BJ): > 90 µM
- IC50 [1]: 245 µM
- IC50 [2]: > 1000 µM

Compound: CC(C)(C)[Si](C)(C)OCCC1=CC[C@H](CO)[C@@]12C=CC(=O)CC2
- EC50 (BJ): > 90 µM
- IC50 [1]: > 1000 µM

Compound: O=C1C=C[C@@]2(CC1)C(c1ccccc1)=CC[C@@H]2CO
- EC50 (BJ): > 90 µM
- IC50 [1]: > 1000 µM

Compound: CCOC[C@H]1CC=C(C(C)C)[C@]12C=CC(=O)CC2
- EC50 (BJ): > 90 µM
- IC50 [1]: > 1000 µM

Compound: C[C@@]1(O)CC[C@]23c4ccccc4C[C@@H]2CO[C@@H]3[C@@H]1O
- EC50 (BJ): > 90 µM
- IC50 [1]: > 1000 µM

Compound: CC(C)C1=CC[C@H](CO)[C@]12CC[C@](C)(O)[C@H]1O[C@H]12
- EC50 (BJ): > 90 µM
- IC50 [1]: > 1000 µM

Compound: CC(C)C1=CC[C@H](CSc2nc3ccccc3s2)[C@@]12C=CC(=O)CC2
- EC50 (BJ): > 90 µM
- IC50 [1]: > 1000 µM
- IC50 [2]: > 1000 µM

Compound: CC(C)C1=CC[C@H](CO)C12CCC(=O)CC2
- EC50 (BJ): > 90 µM
- IC50 [1]: > 1000 µM

Compound: CC(C)[C@@H]1CC[C@H](CO)[C@]12CC[C@@](C)(O)[C@H]1O[C@H]12
- EC50 (BJ): > 90 µM
- IC50 [1]: > 1000 µM

Compound: COC1(OC)C=C[C@@]2(CC1)C(C(C)C)=CC[C@@H]2CO
- EC50 (BJ): > 90 µM
- IC50 [1]: > 1000 µM

Compound: CC(C)C1=CC[C@H](CS(=O)(=O)c2ccc3ccccc3c2)[C@@]12C=CC(=O)CC2
- EC50 (BJ): > 90 µM
- IC50 [1]: 8 µM
- IC50 [2]: > 1000 µM

Compound: CC(C)C1=CC[C@H](C(=O)Nc2ncc(-c3ccc(Cl)cc3)s2)[C@@]12C=CC(=O)CC2
- EC50 (BJ): > 90 µM
- IC50 [1]: 122 µM
- IC50 [2]: > 1000 µM

Compound: O=C1C=C[C@@]2(CC1)C(COCc1ccccc1)=CC[C@@H]2CO
- EC50 (BJ): > 90 µM
- IC50 [1]: > 1000 µM

Compound: CC(C)C1=CC[C@H](CO)[C@]12CC[C@@](C)(O)[C@@H](O)C2
- EC50 (BJ): > 90 µM
- IC50 [1]: > 1000 µM

Compound: CC(C)C1=CC[C@H](CS(=O)(=O)c2nc3ccccc3s2)[C@@]12C=CC(=O)CC2
- EC50 (BJ): > 90 µM
- IC50 [1]: > 1000 µM
- IC50 [2]: > 1000 µM

Compound: CC(C)C1=CC[C@H](C(=O)O)[C@@]12C=CC(=O)CC2
- EC50 (BJ): > 90 µM
- IC50 [1]: > 1000 µM

Compound: CC(C)[C@@H]1CC[C@H](CO)[C@]12CC[C@@](C)(O)[C@@H](O)C2
- EC50 (BJ): > 90 µM
- IC50 [1]: > 1000 µM

Compound: C=C1C(=O)C[C@]2(C[C@@H]1OC(C)=O)[C@@H](C(=O)OCC)CC[C@H]2C(C)C
- EC50 (BJ): > 90 µM
- IC50 [1]: > 1000 µM

Compound: CC(C)[C@@H]1CC[C@H](CO)[C@]12CC[C@](C)(O)[C@H]1O[C@H]12
- EC50 (BJ): > 90 µM
- IC50 [1]: > 1000 µM

Compound: CC1=CC[C@@]2(c3ccccc3C[C@@H]2C(=O)O)[C@H](O)[C@@H]1O
- EC50 (BJ): > 90 µM
- IC50 [1]: > 1000 µM

Compound: CC(C)C1=CC[C@H](CO)[C@@]12C=CC(=O)CC2
- EC50 (BJ): > 90 µM
- IC50 [1]: > 1000 µM

Compound: CC(C)C1=CC(=O)[C@H](CO[Si](C)(C)C(C)(C)C)[C@@]12C=C[C@](C)(O)CC2
- EC50 (BJ): > 90 µM
- IC50 [1]: > 1000 µM

Compound: CCCCCCSc1nnc(SC[C@H]2CC=C(C(C)C)[C@]23C=CC(=O)CC3)s1
- EC50 (BJ): > 90 µM
- IC50 [1]: > 1000 µM
- IC50 [2]: > 1000 µM

Compound: CC1=CC[C@@]2(CC1)C(C(C)C)=CC[C@@H]2CO
- EC50 (BJ): > 90 µM
- IC50 [1]: > 1000 µM

Compound: CC1=CC(=O)[C@@]2(CC1)C(C(C)C)=CC[C@@H]2CO[Si](C)(C)C(C)(C)C
- EC50 (BJ): > 90 µM
- IC50 [1]: > 1000 µM

Compound: CC(C)[C@@H]1CC[C@@H]2CO[C@@H]3C[C@](C)(O)CC[C@]231
- EC50 (BJ): > 90 µM
- IC50 [1]: > 1000 µM

Compound: CC(C)C1=CC[C@H](C(=O)NC(C)C23CC4CC(CC(C4)C2)C3)[C@@]12C=CC(=O)CC2 (some centres not stated)
- EC50 (BJ): > 90 µM
- IC50 [1]: 85 µM
- IC50 [2]: > 1000 µM

Compound: CC(C)C1=CC[C@H](C(N)=O)[C@@]12C=CC(=O)CC2
- EC50 (BJ): > 90 µM
- IC50 [1]: > 1000 µM

Compound: CCOC(=O)[C@H]1CC[C@@H](C(C)C)[C@]12CCC(=O)[C@@H](OC(C)=O)C2
- EC50 (BJ): > 90 µM
- IC50 [1]: > 1000 µM

Compound: CC(C)C1=CC[C@H](C(=O)NCc2cc(F)cc(F)c2)[C@@]12C=CC(=O)CC2
- EC50 (BJ): > 90 µM
- IC50 [1]: > 1000 µM
- IC50 [2]: > 1000 µM

Compound: O=C1CC[C@@]2(c3ccccc3C[C@@H]2CO)[C@@H]2O[C@H]12
- EC50 (BJ): > 90 µM
- IC50 [1]: > 1000 µM

Compound: CC(C)C1=CC[C@H](C(=O)NCC2CCC3CC2C3(C)C)[C@@]12C=CC(=O)CC2 (some centres not stated)
- EC50 (BJ): > 90 µM
- IC50 [1]: 94 µM
- IC50 [2]: > 1000 µM

Compound: CC(C)C1=CC[C@H](CO)[C@]12CCC(=O)[C@H]1O[C@H]12
- EC50 (BJ): > 90 µM
- IC50 [1]: > 1000 µM

Compound: O=C1C=C[C@@]2(CC1)c1ccccc1C[C@@H]2CO
- EC50 (BJ): > 90 µM
- IC50 [1]: > 1000 µM

Compound: CCOC(=O)[C@H]1CC=C(C(C)C)[C@]12C=CC(=O)[C@@H](OC(C)=O)C2
- EC50 (BJ): > 90 µM
- IC50 [1]: > 1000 µM

Compound: CCCCCCSc1nnc(S(=O)(=O)C[C@H]2CC=C(C(C)C)[C@]23C=CC(=O)CC3)s1
- EC50 (BJ): > 90 µM
- IC50 [1]: 121 µM
- IC50 [2]: > 1000 µM

Compound: CC(C)C1=CC[C@H](CO)[C@]12CC[C@@](C)(O)C[C@H]2O
- EC50 (BJ): > 90 µM
- IC50 [1]: > 1000 µM

Compound: CC(C)C1=CC[C@H](C(=O)NCCc2cccs2)[C@@]12C=CC(=O)CC2
- EC50 (BJ): > 90 µM
- IC50 [1]: > 1000 µM
- IC50 [2]: > 1000 µM

Compound: CC(C)C1=CC[C@H](CSc2nc3ccccc3o2)[C@@]12C=CC(=O)CC2
- EC50 (BJ): > 90 µM
- IC50 [1]: > 1000 µM
- IC50 [2]: > 1000 µM

Compound: CC(C)C1=CC[C@H](CO)[C@@]12C=C[C@](C)(O)CC2
- EC50 (BJ): > 90 µM
- IC50 [1]: > 1000 µM

Compound: C[C@H]1CC[C@@]2(c3ccccc3C[C@@H]2C(=O)O)[C@H](O)[C@@H]1O
- EC50 (BJ): > 90 µM
- IC50 [1]: > 1000 µM

Compound: C=C1C=C[C@]2(CC1)[C@@H](C(=O)OCC)CC[C@H]2C(C)C
- EC50 (BJ): > 90 µM
- IC50 [1]: > 1000 µM

Compound: CC(C)C1=CC[C@H](CO[Si](C)(C)C(C)(C)C)[C@]12CC[C@@]1(O[Si](C)(C)C(C)(C)C)O[C@H]1C2
- EC50 (BJ): > 90 µM
- IC50 [1]: > 1000 µM

Compound: CC(C)C1=CC[C@H](CO)[C@]12CC[C@](C)(O)[C@@H](O)C2
- EC50 (BJ): > 90 µM
- IC50 [1]: > 1000 µM

Compound: CCOC(=O)[C@H]1CC[C@@H](C(C)C)[C@]12C=CC(O)[C@@H](OC(C)=O)C2 (single isomer, unassigned)
- EC50 (BJ): > 90 µM
- IC50 [1]: > 1000 µM
